This passage reports DC50, Kd and IC50 results from patent US20250115598A1 (Anaxis Pharma Pty Ltd, priority 2021, published 2025).

The target of assay [1] is endogenous MLKL in U937 (Homo sapiens (Human), UniProt Q8NB16). The assay can be described thus: Degradation assay: endogenous MLKL in U937 (western blot). To be noted: U937, 24 h incubation, read-out: Degradation of endogenous MLKL in U937 (DC50 cell-based assay). How it is done: Degradation Assay: Screening Compounds Procedure to Evaluate the Activity of Compounds in Degrading Endogenous MLKL in Human and Mouse Cell
endogenous MLKL in U937, sequence (Q8NB16 whole entry): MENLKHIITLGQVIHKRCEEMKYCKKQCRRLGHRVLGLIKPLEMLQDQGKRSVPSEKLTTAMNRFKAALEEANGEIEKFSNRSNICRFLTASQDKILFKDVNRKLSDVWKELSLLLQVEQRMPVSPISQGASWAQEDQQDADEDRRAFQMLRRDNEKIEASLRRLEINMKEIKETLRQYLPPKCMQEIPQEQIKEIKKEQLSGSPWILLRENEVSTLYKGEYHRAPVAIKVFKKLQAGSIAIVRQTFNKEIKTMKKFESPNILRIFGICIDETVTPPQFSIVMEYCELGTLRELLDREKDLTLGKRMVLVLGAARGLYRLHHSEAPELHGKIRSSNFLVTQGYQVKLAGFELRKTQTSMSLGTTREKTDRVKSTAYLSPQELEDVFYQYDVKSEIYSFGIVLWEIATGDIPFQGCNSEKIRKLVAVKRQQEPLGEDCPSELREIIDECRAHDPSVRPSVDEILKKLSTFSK
The mouse dermal fibroblast (MDF) cell line was seeded the day before the experiment in a 24-well plate at a cell density of […] per well in a volume of 0.5 mL per well and left to attach overnight. The human monocyte cell line (U937) was seeded on the day of the experiment in a 24-well plate at a cell density of […] per well in a volume of 0.5 mL per well.
The compound was diluted in DMSO with a starting concentration of 10 mM and titrated stepwise with a dilution of 1:5. 0.5 μL of the compound dilution was added to the appropriate well to achieve a final concentration of 10; 2; 0.4; 0.08 and 0.016 μM. A DMSO only well was included as control.
The cells were incubated for 24 h in the presence of the compound at 37° C. and 10% CO2.
After the 24 h incubation period, the medium was removed and cells washed with 0.5 mL PBS. The cells were then lysed directly in 60 μL of 1×SDS gel loading buffer.
The cell lysate was heat-denatured at […] for 10 min. 10 μL of lysate per well were run on 18-well 4-15% Criterion TGX stain free gels (BIO-RAD). The proteins were then transferred onto nitrocellulose membrane with a wet transfer protocol in the Criterion Blotter (BIO-RAD).
Membranes were blocked with 5% skim milk in TBST. Primary antibody against MLKL (clone 3H1, MABC604 Merck) was used at 1:2000 dilution in TBST with 1% BSA and left shaking over night at 4° C. After washes with TBST, the membranes were incubated with goat anti-rat IgG HRP-conjugated antibody (Southern Biotech) in 1% skim milk TBST at 1:10000 dilution for 1 h at room temperature. After TBST washes the bands were imaged on the ChemiDoc MP Imaging System (BIO-RAD) with Immobilion Western Chemiluminescent HRP Substrate Forte (Millipore). The loading control GAPDH was probed for with rabbit anti-GAPDH (CST 14C10) at 1:2000 dilution in 1% BSA TBST over night at 4° C. TBST washes were followed by incubation with goat anti-rabbit IgG HRP-conjugated antibody (Southern Biotech) in 1% skim milk TBST at 1:10000 dilution for 1 h at room temperature followed by TBST washes. The signal was detected as described above.
The band intensity was measured in the ImageLab Software (BIO-RAD) and the MLKL values adjusted for loading with GAPDH. The percentage of degradation was calculated by normalizing the compound treated values to the DMSO only control.

In assay [2] the target is human MLKL (full length) (Homo sapiens (Human), UniProt Q8NB16). The assay can be described thus: KINOMEscan binding assay, human MLKL (full length). Particulars: hMLKL, Table 25; read-out: MLKL (KD). The method, boiled down: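 KINOMEscan competition binding using kinase-tagged T7 phage or HEK-293-produced DNA-tagged protein captured on ligand beads, with eluted protein quantified by qPCR. Compounds were run as an 11-point 3-fold series, top 30,000 nM, in 1% DMSO. Kd was fitted with the Hill equation, slope fixed at −1.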
human MLKL (full length), sequence (Q8NB16 whole entry): as above

The test system of assay [3] is Immortalised Mouse Dermal Fibroblasts (MDFs). The assay is described as follows: Cellular assay: inhibition of TSI induced necroptosis, CellTitre-Glo viability. To be noted: Mus musculus, Fibroblast; MDF, 3 hours TSI cocktail, Table 27; read-out: Inhibition of TSI-induced necroptosis (IC50 cell-based assay) in MDF. The essentials:
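Necroptosis induced for 3 h with TSI: rhTNF 100 ng/ml, Smac mimetic 500 nM, caspase inhibitor IDN-6556 10 μM. Mouse dermal fibroblasts had received compound (36 μM top, ten three-fold steps) 30 min beforehand. ATP-based viability scaled between untreated and TSI-only wells; IC50 taken as 4-parameter curve inflection.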

In assay [4] the target is endogenous MLKL in MDF (Mus musculus (Mouse), UniProt Q9D2Y4). The assay is described as follows: Degradation assay: endogenous MLKL in MDF (western blot). Particulars: MDF cells, 24 h incubation with compound, MLKL adjusted for loading with GAPDH, normalized to DMSO only control, read-out: Degradation of endogenous MLKL in MDF (DC50 cell-based assay). The method, boiled down:
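Western blot band intensity of MLKL, adjusted to GAPDH loading and normalized to DMSO-only wells, gave percent degradation. Compound exposure lasted 24 h at final concentrations of 10–0.016 μM in 1:5 steps, in mouse dermal fibroblasts or human U937 cells.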

endogenous MLKL in MDF, sequence (Q9D2Y4 whole entry): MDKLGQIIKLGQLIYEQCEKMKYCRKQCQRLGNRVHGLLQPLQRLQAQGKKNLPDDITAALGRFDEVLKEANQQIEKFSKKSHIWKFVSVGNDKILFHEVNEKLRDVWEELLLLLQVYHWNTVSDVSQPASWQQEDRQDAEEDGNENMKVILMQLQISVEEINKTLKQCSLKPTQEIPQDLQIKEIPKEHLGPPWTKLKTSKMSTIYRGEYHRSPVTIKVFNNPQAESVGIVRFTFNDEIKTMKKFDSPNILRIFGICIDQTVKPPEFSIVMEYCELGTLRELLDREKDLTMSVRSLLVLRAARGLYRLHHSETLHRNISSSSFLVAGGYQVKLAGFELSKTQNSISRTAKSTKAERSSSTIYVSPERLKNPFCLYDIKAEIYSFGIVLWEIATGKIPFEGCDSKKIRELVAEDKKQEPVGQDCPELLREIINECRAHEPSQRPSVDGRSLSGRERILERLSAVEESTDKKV

As to “(2S,4R)-1-[(2S)-2-(9-{4-amino-3-[4-(difluoromethanesulfonamido)-3-fluorophenyl]-1-methyl-1H-pyrazolo[4,3-c]pyridin-7-yl}non-8-ynamido)-3,3-dimethylbutanoyl]-4-hydroxy-N-{[4-(4-methyl-1,3-thiazol-5-yl)phenyl]methyl}pyrrolidine-2-carboxamide [Compound 1046]”, in assay [1], the DC50 is less than 1 µM.

Turning to `CN[C@@H](C)C(=O)N[C@H](C(=O)N1C[C@H](NC(=O)CCCCCCn2cc(-c3cnc(N)c4c(-c5ccc(NS(=O)(=O)C(F)F)c(O[C@@H](C)c6ccc(F)cc6)c5)nn(C)c34)cn2)C[C@H]1C(=O)Nc1c(F)cccc1F)C(C)(C)C` [Compound 1101, (2S)-4-[7-(4-{4-amino-3-[4-(difluoromethanesulfonamido)-3-[(1S)-1-(4-fluorophenyl)ethoxy]phenyl]-1-methyl-1H-pyrazolo[4,3-c]pyridin-7-yl}-1H-pyrazol-1-yl)heptanamido]-N-(2,6-difluorophenyl)-1-[(2S)-3,3-dimethyl-2-[(2S)-2-(methylamino)propanamido]butanoyl]pyrrolidine-2-carboxamide], the DC50 in assay [1] was less than 1 µM. Also, the Kd in assay [2] is less than 0.01 µM.

As to `Cc1ncsc1-c1ccc(CNC(=O)[C@@H]2C[C@@H](O)CN2C(=O)[C@@H](NC(=O)CCOCCCn2cc(-c3cnc(N)c4c(-c5ccc(NS(=O)(=O)C(F)F)c(O[C@@H](C)c6ccc(F)cc6)c5)nn(C)c34)cn2)C(C)(C)C)cc1` [Compound 1040, (2S,4R)-1-[(2S)-2-{3-[3-(4-{4-amino-3-[4-(difluoromethanesulfonamido)-3-[(1S)-1-(4-fluorophenyl)ethoxy]phenyl]-1-methyl-1H-pyrazolo[4,3-c]pyridin-7-yl}-1H-pyrazol-1-yl)propoxy]propanamido}-3,3-dimethylbutanoyl]-4-hydroxy-N-{[4-(4-methyl-1,3-thiazol-5-yl)phenyl]methyl}pyrrolidine-2-carboxamide], the DC50 in assay [1] was 1 to 10 µM. Further, the Kd in assay [2] is less than 0.01 µM.

For `C[C@H](Oc1cc(-c2nn(C)c3c(-c4cnn(C5CCN(C(=O)c6ccc7c(c6)CN(C6CCC(=O)NC6=O)C7=O)CC5)c4)cnc(N)c23)ccc1NS(=O)(=O)C(F)F)c1ccc(F)cc1` (stereo partly drawn) [Compound 1096, N-{4-[4-amino-7-(1-{1-[2-(2,6-dioxopiperidin-3-yl)-1-oxo-2,3-dihydro-1H-isoindole-5-carbonyl]piperidin-4-yl}-1H-pyrazol-4-yl)-1-methyl-1H-pyrazolo[4,3-c]pyridin-3-yl]-2-[(1S)-1-(4-fluorophenyl)ethoxy]phenyl}-1,1-difluoromethanesulfonamide], in assay [2], the Kd was less than 0.01 µM. Also, in assay [3], the IC50 lay within 1 to 10 µM. Also, the DC50 in assay [4] is less than 1 µM.

Turning to `C[C@H](Oc1cc(-c2nn(C)c3c(-c4cnn(C5CCN(C(=O)[C@H]6CC[C@@H](Nc7cccc8c7C(=O)N(C7CCC(=O)NC7=O)C8=O)CC6)CC5)c4)cnc(N)c23)ccc1NS(=O)(=O)C(F)F)c1ccc(F)cc1` (some centres unmarked) [Compound 1071], in assay [2], the Kd was less than 0.01 µM. Also, the IC50 in assay [3] was less than 1 µM. Also, the DC50 in assay [4] was less than 1 µM.

In the case of `C[C@H](Oc1cc(-c2nn(C)c3c(-c4cnn(C5CCN(C(=O)C6CN(c7cccc8c7C(=O)N(C7CCC(=O)NC7=O)C8=O)CCO6)CC5)c4)cnc(N)c23)ccc1NS(=O)(=O)C(F)F)c1ccc(F)cc1` (stereo partly drawn) [Compound 1070, N-(4-{4-amino-7-[1-(1-{4-[2-(2,6-dioxopiperidin-3-yl)-1,3-dioxo-2,3-dihydro-1H-isoindol-4-yl]morpholine-2-carbonyl}piperidin-4-yl)-1H-pyrazol-4-yl]-1-methyl-1H-pyrazolo[4,3-c]pyridin-3-yl}-2-[(1S)-1-(4-fluorophenyl)ethoxy]phenyl)-1,1-difluoromethanesulfonamide], the Kd in assay [2] lay within 0.01 to 1 µM. Besides, the IC50 in assay [3] was less than 1 µM. Further, the DC50 in assay [4] is less than 1 µM.

As to `C[C@H](Oc1cc(-c2nn(C)c3c(-c4cnn(C5CCN(C(=O)CCC6CCN(c7cccc8c7C(=O)N(C7CCC(=O)NC7=O)C8=O)CC6)CC5)c4)cnc(N)c23)ccc1NS(=O)(=O)C(F)F)c1ccc(F)cc1` (stereo partly drawn) [Compound 1043, N-[4-(4-amino-7-{1-[1-(3-{1-[2-(2,6-dioxopiperidin-3-yl)-1,3-dioxo-2,3-dihydro-1H-isoindol-4-yl]piperidin-4-yl}propanoyl)piperidin-4-yl]-1H-pyrazol-4-yl}-1-methyl-1H-pyrazolo[4,3-c]pyridin-3-yl)-2-[(1S)-1-(4-fluorophenyl)ethoxy]phenyl]-1,1-difluoromethanesulfonamide], the Kd in assay [2] was 0.01 to 1 µM. Further, the IC50 in assay [3] was less than 1 µM. The DC50 in assay [4] was less than 1 µM.

Take `C[C@H](Oc1cc(-c2nn(C)c3c(-c4cnn(C5CCN(C(=O)C6CC(N(C)c7cccc8c7C(=O)N(C7CCC(=O)NC7=O)C8=O)C6)CC5)c4)cnc(N)c23)ccc1NS(=O)(=O)C(F)F)c1ccc(F)cc1` (stereo partly drawn) [Compound 1119, N-{4-[4-amino-1-methyl-7-(1-{1-[(trans)-3-{[2-(2,6-dioxopiperidin-3-yl)-1,3-dioxo-2,3-dihydro-1H-isoindol-4-yl](methyl)amino}cyclobutanecarbonyl]piperidin-4-yl}-1H-pyrazol-4-yl)-1H-pyrazolo[4,3-c]pyridin-3-yl]-2-[(1S)-1-(4-fluorophenyl)ethoxy]phenyl}-1,1-difluoromethanesulfonamide]: the Kd in assay [2] is less than 0.01 µM. The IC50 in assay [3] was less than 1 µM. Moreover, the DC50 in assay [4] was less than 1 µM.

For the compound `C[C@H](Oc1cc(-c2nn(C)c3c(-c4cnn(C5CCN(C(=O)OCC6CCN(c7cccc8c7C(=O)N(C7CCC(=O)NC7=O)C8=O)CC6)CC5)c4)cnc(N)c23)ccc1NS(=O)(=O)C(F)F)c1ccc(F)cc1` (some centres unmarked) [Compound 1105, {1-[2-(2,6-dioxopiperidin-3-yl)-1,3-dioxo-2,3-dihydro-1H-isoindol-4-yl]piperidin-4-yl}methyl4-(4-{4-amino-3-[4-(difluoromethanesulfonamido)-3-[(1 S)-1-(4-fluorophenyl)ethoxy]phenyl]-1-methyl-1H-pyrazolo[4,3-c]pyridin-7-yl}-1H-pyrazol-1-yl)piperidine-1-carboxylate], in assay [2], the Kd fell in the range of 0.01 to 1 µM. The IC50 in assay [3] is less than 1 µM. In addition, the 50% degradation concentration (DC50) in assay [4] is less than 1 µM.

Take `C[C@H](Oc1cc(-c2nn(C)c3c(-c4cnn(C5CCN(C(=O)[C@H]6C[C@@H](Nc7cccc8c7C(=O)N(C7CCC(=O)NC7=O)C8=O)C6)CC5)c4)cnc(N)c23)ccc1NS(=O)(=O)C(F)F)c1ccc(F)cc1` (stereo partly drawn) [Compound 1055, N-{4-[4-amino-1-methyl-7-(1-{1-[(cis)-3-{[2-(2,6-dioxopiperidin-3-yl)-1,3-dioxo-2,3-dihydro-1H-isoindol-4-yl]amino}cyclobutane-carbonyl]piperidin-4-yl}-1H-pyrazol-4-yl)-1H-pyrazolo[4,3-c]pyridin-3-yl]-2-[(1S)-1-(4-fluorophenyl)ethoxy]phenyl}-1,1-difluoromethanesulfonamide]: the Kd in assay [2] is 0.01 to 1 µM. Moreover, in assay [3], the IC50 is less than 1 µM. Further, in assay [4], the DC50 was less than 1 µM.
